According to PubChem BioAssay (NCI):
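Growth conditions: 96-well plates. Treatment: test compound, 48 hours, 5 concentrations. Analysis: linear interpolation between bracketing concentrations; unreached endpoints set to highest concentration. At the GI50, growth is halved. TGI: concentration producing complete growth inhibition.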

Each compound was assayed on CCRF-CEM leukemia (assay: NCI anticancer screen, dose series, 48 h).

SMILES | TGI [µM] | GI50 [µM]
O=CNc1ccc2c(c1)C(=O)c1ccccc1-2 | > 100 | 
O=C(Nc1ccc(Oc2ccc(Nc3nc4ccccc4s3)cc2)cc1)Nc1ccc(Cl)c(C(F)(F)F)c1 | > 100 | 1.76
Nc1c(C(=O)Nc2cccc(C(F)(F)F)c2)sc2nc3c(cc12)CCCCC3 | > 100 | 5.56
COc1ccc2nc3cc(Cl)ccc3c(NCCNCC(C)O)c2c1 (stereo not given) | 8.66 | 2.46
CCn1c(-c2nonc2N)nc2c(C#CC(C)(C)O)nc(OC[C@@H](N)c3ccccc3)cc21 | 23.3 | 4.08
CCCOc1cc2ccccc2cc1C(=O)Nc1nc(N)c2c(ccc3nccc32)[nH]1 | 1.49 | 0.042
CC1(C)OC1COc1c2occc2cc2ccc(=O)oc12 (stereo not given) | > 100 | 
CCCCCCCCCCCCC(O)c1ccc(C#CCCCCCCCCCO)o1 (stereo not given) | 51.4 | 23.2
Nc1n[nH]c2cc(F)c([C@@H]3Nc4ccc5[nH]ncc5c4[C@H]4C5CCC(C5)[C@@H]34)cc12 (stereo not given in full) | > 50 | 0.176
COc1ccc(CCN=C2NC(=O)/C(=C/c3ccc4ncccc4c3)S2)cc1 | > 25 | > 25
COC[C@H]1Cn2cc(-c3nc(Nc4ccnn4C)ncc3C)nc2C(=O)N1Cc1ccc(F)c(F)c1 | > 100 | 29.3

These compounds were tested on COLO 205 colon (assay: NCI anticancer screen, dose series, 48 h).

SMILES | TGI [µM] | GI50 [nM]
O=CNc1ccc2c(c1)C(=O)c1ccccc1-2 | > 100 | 
O=C(Nc1ccc(Oc2ccc(Nc3nc4ccccc4s3)cc2)cc1)Nc1ccc(Cl)c(C(F)(F)F)c1 | 3.25 | 1640
Nc1c(C(=O)Nc2cccc(C(F)(F)F)c2)sc2nc3c(cc12)CCCCC3 | > 100 | 11700
COc1ccc2nc3cc(Cl)ccc3c(NCCNCC(C)O)c2c1 (stereo not given) | 2.79 | 1110
CCn1c(-c2nonc2N)nc2c(C#CC(C)(C)O)nc(OC[C@@H](N)c3ccccc3)cc21 | 8.31 | 4680
CCCOc1cc2ccccc2cc1C(=O)Nc1nc(N)c2c(ccc3nccc32)[nH]1 | 0.481 | 44.5
CC1(C)OC1COc1c2occc2cc2ccc(=O)oc12 (stereo not given) | > 100 | 
CCCCCCCCCCCCC(O)c1ccc(C#CCCCCCCCCCO)o1 (stereo not given) | > 100 | > 100000
Nc1n[nH]c2cc(F)c([C@@H]3Nc4ccc5[nH]ncc5c4[C@H]4C5CCC(C5)[C@@H]34)cc12 (stereo not given in full) | 0.527 | 162
COc1ccc(CCN=C2NC(=O)/C(=C/c3ccc4ncccc4c3)S2)cc1 | > 25 | > 25000
COC[C@H]1Cn2cc(-c3nc(Nc4ccnn4C)ncc3C)nc2C(=O)N1Cc1ccc(F)c(F)c1 | > 100 | 20.3

These compounds were tested on DU-145 prostate (assay: NCI anticancer screen, dose series, 48 h).

SMILES | TGI [µM] | GI50 [µM]
O=CNc1ccc2c(c1)C(=O)c1ccccc1-2 | > 100 | 
O=C(Nc1ccc(Oc2ccc(Nc3nc4ccccc4s3)cc2)cc1)Nc1ccc(Cl)c(C(F)(F)F)c1 | 7.22 | 2.47
Nc1c(C(=O)Nc2cccc(C(F)(F)F)c2)sc2nc3c(cc12)CCCCC3 | 28.4 | 4.81
COc1ccc2nc3cc(Cl)ccc3c(NCCNCC(C)O)c2c1 (stereo not given) | 8.57 | 2.12
CCn1c(-c2nonc2N)nc2c(C#CC(C)(C)O)nc(OC[C@@H](N)c3ccccc3)cc21 | 8.85 | 4.45
CCCOc1cc2ccccc2cc1C(=O)Nc1nc(N)c2c(ccc3nccc32)[nH]1 | 1.45 | 0.0487
CC1(C)OC1COc1c2occc2cc2ccc(=O)oc12 (stereo not given) | > 100 | 
CCCCCCCCCCCCC(O)c1ccc(C#CCCCCCCCCCO)o1 (stereo not given) | 33 | 18.8
Nc1n[nH]c2cc(F)c([C@@H]3Nc4ccc5[nH]ncc5c4[C@H]4C5CCC(C5)[C@@H]34)cc12 (stereo not given in full) | 8.75 | 0.205
COc1ccc(CCN=C2NC(=O)/C(=C/c3ccc4ncccc4c3)S2)cc1 | > 25 | > 25
COC[C@H]1Cn2cc(-c3nc(Nc4ccnn4C)ncc3C)nc2C(=O)N1Cc1ccc(F)c(F)c1 | > 100 | 22.7

These compounds were tested on HCC-2998 colon (assay: NCI anticancer screen, dose series, 48 h).

SMILES | TGI [µM] | GI50 [nM]
O=CNc1ccc2c(c1)C(=O)c1ccccc1-2 | > 100 | 
O=C(Nc1ccc(Oc2ccc(Nc3nc4ccccc4s3)cc2)cc1)Nc1ccc(Cl)c(C(F)(F)F)c1 | 3.91 | 1870
Nc1c(C(=O)Nc2cccc(C(F)(F)F)c2)sc2nc3c(cc12)CCCCC3 | > 100 | 31000
COc1ccc2nc3cc(Cl)ccc3c(NCCNCC(C)O)c2c1 (stereo not given) | 2.94 | 1380
CCn1c(-c2nonc2N)nc2c(C#CC(C)(C)O)nc(OC[C@@H](N)c3ccccc3)cc21 | 8.14 | 4310
CCCOc1cc2ccccc2cc1C(=O)Nc1nc(N)c2c(ccc3nccc32)[nH]1 | 1.86 | 220
CC1(C)OC1COc1c2occc2cc2ccc(=O)oc12 (stereo not given) | > 100 | 
CCCCCCCCCCCCC(O)c1ccc(C#CCCCCCCCCCO)o1 (stereo not given) | 48.2 | 27500
Nc1n[nH]c2cc(F)c([C@@H]3Nc4ccc5[nH]ncc5c4[C@H]4C5CCC(C5)[C@@H]34)cc12 (stereo not given in full) | 1.93 | 177
COc1ccc(CCN=C2NC(=O)/C(=C/c3ccc4ncccc4c3)S2)cc1 | > 25 | > 25000
COC[C@H]1Cn2cc(-c3nc(Nc4ccnn4C)ncc3C)nc2C(=O)N1Cc1ccc(F)c(F)c1 | > 100 | 67.3

Each compound was assayed on K-562 leukemia (assay: NCI anticancer screen, dose series, 48 h).

SMILES | TGI [µM] | GI50 [µM]
O=CNc1ccc2c(c1)C(=O)c1ccccc1-2 | > 100 | 
O=C(Nc1ccc(Oc2ccc(Nc3nc4ccccc4s3)cc2)cc1)Nc1ccc(Cl)c(C(F)(F)F)c1 | 14.2 | 2.51
Nc1c(C(=O)Nc2cccc(C(F)(F)F)c2)sc2nc3c(cc12)CCCCC3 | 29.7 | 5.42
COc1ccc2nc3cc(Cl)ccc3c(NCCNCC(C)O)c2c1 (stereo not given) | 10 | 1.28
CCn1c(-c2nonc2N)nc2c(C#CC(C)(C)O)nc(OC[C@@H](N)c3ccccc3)cc21 | 14.1 | 5.19
CCCOc1cc2ccccc2cc1C(=O)Nc1nc(N)c2c(ccc3nccc32)[nH]1 | 1.26 | 0.0339
CC1(C)OC1COc1c2occc2cc2ccc(=O)oc12 (stereo not given) | > 100 | 
CCCCCCCCCCCCC(O)c1ccc(C#CCCCCCCCCCO)o1 (stereo not given) | 22.6 | 3.73
Nc1n[nH]c2cc(F)c([C@@H]3Nc4ccc5[nH]ncc5c4[C@H]4C5CCC(C5)[C@@H]34)cc12 (stereo not given in full) | > 50 | 0.103
COc1ccc(CCN=C2NC(=O)/C(=C/c3ccc4ncccc4c3)S2)cc1 | > 25 | > 25
COC[C@H]1Cn2cc(-c3nc(Nc4ccnn4C)ncc3C)nc2C(=O)N1Cc1ccc(F)c(F)c1 | > 100 | 5.85
